# Measurements as given in PubChem BioAssay AID2060485 (Molecular Pharmacology Branch, DTP, NCI, 2025).
# Test system: A375 multi-cell spheroids with HUVEC/MSC, viability
# Test: Anticancer human tumor A375 cell line growth inhibition [GQUAD];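 further: spheroids exposed to compounds for seven days before readout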
# Settings: for IC50: curve of first compound; for viability, T/C: stronger effect = lower value
# Text: DNA G-quadruplex Stabilizer Agents in Combinations in Complex Spheroids
# A high-throughput screen of multi-cell type tumor spheroids was designed to identify active combinations of DNA G-quadruplex stabilizer agents and targeted small molecules. Complex spheroids include a stromal component modeled by human endothelial cells (HUVEC) and fibroblasts modeled by human mesenchymal stem cells (MSCs). The concentration ranges selected for each drug and investigational agent were based upon clinically achievable concentrations if the clinical Cmax of the agent was known.
# Compounds. The drugs and investigational agents: pidnarulex (CX-5461; NSC782164), APTO-253 (NSC789042), BRACO-19 (NSC847499), peposertib (NSC802822), ceralasertib (NSC780249), elimusertib (NSC800525), camonsertib (NSC841442), AZD-1390 (NSC803789), olaparib (NSC753686), talazoparib (NSC767125), ART-558 (NSC835418), sotorasib (NSC818433), MRTX-1133 (NSC836407), SN-38 (NSC673596), topotecan (NSC609699), etoposide (NSC141540), doxorubicin (NSC123127), gemcitabine (NSC613327), 5-fluorouracil (NSC19893), paclitaxel (NSC125973), vemurafenib (NSC761431), panobinostat (NSC761190), R-306465 (JNJ-16241199; NSC773264), adavosertib (NSC754352), TP-3654 (NSC805149), carboplatin (NSC241240), KSQ-4279 (NSC840948), and staurosporine (NSC755774) were obtained from the National Cancer Institute (NCI) Developmental Therapeutics Program Chemical Repository (34). The FDA-approved anticancer drug set is available from the NCI Developmental Therapeutics Program. […] The stock solutions were prepared in dimethyl sulfoxide (DMSO, Sigma-Aldrich, St. Louis, MO, cat. D2650) at 800-fold the tested concentration and stored at -70 degrees C prior to their use. All drugs and investigational agents were tested over a range starting from a high concentration at or near the clinical Cmax and decreasing in half-log increments. If the clinical Cmax for an agent had not been determined, the highest concentration tested was 10 microM.
# 2.3 Cell Culture. All cells were maintained in an incubator at 37 degrees C and 5% CO2 with 95% humidity. The PDC lines were cultured according to standard operating procedures established by the NCI PDMR. All PDCs were thawed and cultured in Matrigel-coated flasks prepared with a working solution of 1X Ham's F-12 nutrient mix, without supplementation (Invitrogen, cat. 11765054), 100 U/mL penicillin-streptomycin (Invitrogen, cat. 15140122), and 2.5% Matrigel (Corning Inc., cat. 354248) for the first three passages. The 857933-349-R-J2-PDC line was cultured in 6C/Colon 1B media, which includes advanced DMEM/F-12 (Thermo Fisher Scientific, cat. 12634028), 10 mM HEPES (Thermo Fisher Scientific, cat. 15630080), 1X GlutaMAX supplement (Thermo Fisher Scientific, cat. 35050061), 0.1 mg/mL primocin (InvivoGen, cat. ant-pm-2), 10% defined fetal bovine serum, heat inactivated (HyClone Laboratories Inc., cat. SH30070.03HI), 50% L-WRN conditioned media (ATCC, cat. CRL-3276), 1.25 mM N-Acetyl-L-cysteine (Sigma-Aldrich, cat. A9165), 10 mM nicotinamide (Sigma-Aldrich, cat. N0636), 1X B-27 supplement (Thermo Fisher Scientific, cat. 17504044), 1X N-2 supplement (Thermo Fisher Scientific, cat. 17502048), 10 microM Y-27632 dihydrochloride (Tocris Bioscience, cat. 1254), and 50 ng/mL human EGF recombinant protein (Thermo Fisher Scientific, cat. PHG0311). The 485176-168-R4-J1-PDC line was cultured in Panc media, which includes all 6C/Colon 1B media components plus 100 ng/mL human FGF-10 (Thermo Fisher Scientific, cat. 100-26), 500 nM SB-431542 (Selleckchem, cat. S1067), and gastrin (Tocris, cat. 3006).
# […]
# [1] = second compound 0.0316 µM, first compound 0.0316 µM
# [2] = second compound 0.0316 µM, first compound 0.1 µM
# [3] = second compound 0.0316 µM, first compound 0.316 µM
# [4] = second compound 0.0316 µM, first compound 1 µM
# [5] = second compound 0.0316 µM, first compound 3.16 µM
# [6] = second compound 0.0316 µM, first compound 10 µM
# [7] = second compound 0.1 µM, first compound 0.0316 µM
# [8] = second compound 0.1 µM, first compound 0.1 µM
# [9] = second compound 0.1 µM, first compound 0.316 µM
# [10] = second compound 0.1 µM, first compound 1 µM
# [11] = second compound 0.1 µM, first compound 3.16 µM
# [12] = second compound 0.1 µM, first compound 10 µM
# [13] = second compound 0.316 µM, first compound 0.0316 µM
# [14] = second compound 0.316 µM, first compound 0.1 µM
# [15] = second compound 0.316 µM, first compound 0.316 µM
# [16] = second compound 0.316 µM, first compound 1 µM
# [17] = second compound 0.316 µM, first compound 3.16 µM
# [18] = second compound 0.316 µM, first compound 10 µM
# [19] = second compound 1 µM, first compound 0.0316 µM
# [20] = second compound 1 µM, first compound 0.1 µM
# [21] = second compound 1 µM, first compound 0.316 µM
# [22] = second compound 1 µM, first compound 1 µM
# [23] = second compound 1 µM, first compound 3.16 µM
# [24] = second compound 1 µM, first compound 10 µM
# [25] = second compound 3.16 µM, first compound 0.0316 µM
# [26] = second compound 3.16 µM, first compound 0.1 µM
# [27] = second compound 3.16 µM, first compound 0.316 µM
# [28] = second compound 3.16 µM, first compound 1 µM
# [29] = second compound 3.16 µM, first compound 3.16 µM
# [30] = second compound 3.16 µM, first compound 10 µM
# [31] = second compound 10 µM, first compound 0.0316 µM
# [32] = second compound 10 µM, first compound 0.1 µM
# [33] = second compound 10 µM, first compound 0.316 µM
# [34] = second compound 10 µM, first compound 1 µM
# [35] = second compound 10 µM, first compound 3.16 µM
# [36] = second compound 10 µM, first compound 10 µM
compound,measurement,setting,value
CC(=O)O[C@H]1C(=O)[C@@]2(C)[C@H]([C@H](OC(=O)c3ccccc3)[C@]3(O)C[C@H](OC(=O)[C@H](O)[C@@H](NC(=O)c4ccccc4)c4ccccc4)C(C)=C1C3(C)C)[C@]1(OC(C)=O)CO[C@@H]1C[C@@H]2O + Cc1[nH]c2ccc(F)cc2c1-c1nc2c3cccnc3c3ncccc3c2[nH]1,IC50,second compound 0.0316 µM,46.8 nM
same,IC50,second compound 0.1 µM,52.3 nM
same,IC50,second compound 0.316 µM,52.5 nM
same,IC50,second compound 1 µM,50.9 nM
same,IC50,second compound 3.16 µM,< 31.6 nM
same,IC50,second compound 10 µM,< 31.6 nM
same,"viability, T/C",[1],67.1%
same,"viability, T/C",[2],16.8%
same,"viability, T/C",[3],9.66%
same,"viability, T/C",[4],8.81%
same,"viability, T/C",[5],9.39%
same,"viability, T/C",[6],10.1%
same,"viability, T/C",[7],73.9%
same,"viability, T/C",[8],19.3%
same,"viability, T/C",[9],10.3%
same,"viability, T/C",[10],11.5%
same,"viability, T/C",[11],7.58%
same,"viability, T/C",[12],12.6%
same,"viability, T/C",[13],72.2%
same,"viability, T/C",[14],21.9%
same,"viability, T/C",[15],11.6%
same,"viability, T/C",[16],11.8%
same,"viability, T/C",[17],10.5%
same,"viability, T/C",[18],13.2%
same,"viability, T/C",[19],68.5%
same,"viability, T/C",[20],23.8%
same,"viability, T/C",[21],14.5%
same,"viability, T/C",[22],13.7%
same,"viability, T/C",[23],13.9%
same,"viability, T/C",[24],17.3%
same,"viability, T/C",[25],25.6%
same,"viability, T/C",[26],16%
same,"viability, T/C",[27],15%
same,"viability, T/C",[28],19.8%
same,"viability, T/C",[29],14.5%
same,"viability, T/C",[30],12.9%
same,"viability, T/C",[31],33.6%
same,"viability, T/C",[32],22.9%
same,"viability, T/C",[33],18.8%
same,"viability, T/C",[34],18.8%
same,"viability, T/C",[35],17.9%
same,"viability, T/C",[36],18.8%
CC(C)(O)C1CCC(Nc2ccc3ncc(-c4cccc(C(F)(F)F)c4)n3n2)CC1 (stereo unspecified) + Cc1[nH]c2ccc(F)cc2c1-c1nc2c3cccnc3c3ncccc3c2[nH]1,IC50,second compound 0.0316 µM,> 10000 nM
same,IC50,second compound 0.1 µM,> 10000 nM
same,IC50,second compound 0.316 µM,> 10000 nM
same,IC50,second compound 1 µM,> 10000 nM
same,IC50,second compound 3.16 µM,66.7 nM
same,IC50,second compound 10 µM,845 nM
same,"viability, T/C",[1],99.5%
same,"viability, T/C",[2],100%
same,"viability, T/C",[3],96.5%
same,"viability, T/C",[4],112%
same,"viability, T/C",[5],94.4%
same,"viability, T/C",[6],92.1%
same,"viability, T/C",[7],103%
same,"viability, T/C",[8],110%
same,"viability, T/C",[9],97.3%
same,"viability, T/C",[10],113%
same,"viability, T/C",[11],84.7%
same,"viability, T/C",[12],87.6%
same,"viability, T/C",[13],98.5%
same,"viability, T/C",[14],102%
same,"viability, T/C",[15],105%
same,"viability, T/C",[16],100%
same,"viability, T/C",[17],77.6%
same,"viability, T/C",[18],86.1%
same,"viability, T/C",[19],106%
same,"viability, T/C",[20],104%
same,"viability, T/C",[21],101%
same,"viability, T/C",[22],93.6%
same,"viability, T/C",[23],47.4%
same,"viability, T/C",[24],73.7%
same,"viability, T/C",[25],49.7%
same,"viability, T/C",[26],52.3%
same,"viability, T/C",[27],39%
same,"viability, T/C",[28],30.2%
same,"viability, T/C",[29],10.4%
same,"viability, T/C",[30],20.4%
same,"viability, T/C",[31],76.7%
same,"viability, T/C",[32],82.9%
same,"viability, T/C",[33],72.3%
same,"viability, T/C",[34],46.9%
same,"viability, T/C",[35],16.2%
same,"viability, T/C",[36],42.3%
CCCS(=O)(=O)Nc1ccc(F)c(C(=O)c2c[nH]c3ncc(-c4ccc(Cl)cc4)cc23)c1F + Cc1[nH]c2ccc(F)cc2c1-c1nc2c3cccnc3c3ncccc3c2[nH]1,IC50,second compound 0.0316 µM,< 31.6 nM
same,IC50,second compound 0.1 µM,< 31.6 nM
same,IC50,second compound 0.316 µM,< 31.6 nM
same,IC50,second compound 1 µM,< 31.6 nM
same,IC50,second compound 3.16 µM,< 31.6 nM
same,IC50,second compound 10 µM,< 31.6 nM
same,"viability, T/C",[1],47.1%
same,"viability, T/C",[2],14.9%
same,"viability, T/C",[3],7.54%
same,"viability, T/C",[4],5.63%
same,"viability, T/C",[5],6%
same,"viability, T/C",[6],6.44%
same,"viability, T/C",[7],40.4%
same,"viability, T/C",[8],15.4%
same,"viability, T/C",[9],8.57%
same,"viability, T/C",[10],6.32%
same,"viability, T/C",[11],5.78%
same,"viability, T/C",[12],5.39%
same,"viability, T/C",[13],43.6%
same,"viability, T/C",[14],13.7%
same,"viability, T/C",[15],8.7%
same,"viability, T/C",[16],6.15%
same,"viability, T/C",[17],5.37%
same,"viability, T/C",[18],4.44%
same,"viability, T/C",[19],32%
same,"viability, T/C",[20],14.6%
same,"viability, T/C",[21],7.98%
same,"viability, T/C",[22],5.57%
same,"viability, T/C",[23],5%
same,"viability, T/C",[24],1.74%
same,"viability, T/C",[25],24.6%
same,"viability, T/C",[26],10%
same,"viability, T/C",[27],6.35%
same,"viability, T/C",[28],3.57%
same,"viability, T/C",[29],1.79%
same,"viability, T/C",[30],0.23%
same,"viability, T/C",[31],30.4%
same,"viability, T/C",[32],13.4%
same,"viability, T/C",[33],7.1%
same,"viability, T/C",[34],4.44%
same,"viability, T/C",[35],3.27%
same,"viability, T/C",[36],0.2%
